# Results published in patent US20040235857A1, “Crystalline therapeutic agent” (Pfizer Inc, priority 2003, published 2004).
# Legend:
# [1] = TGA of the higher hydrated form of sildenafil hemi-citrate; type: physicochemical; details: temperatures in excess of 150° C.; attributed to degradation of the citrate ion
# Experimental: A TGA trace showing the relative % weight loss versus temperature for the solid form of the present invention is illustrated in FIG. 7. This trace was obtained using a Perkin-Elmer Pyris 1 TGA instrument. The sample, ideally about 5 to about 10 mg, was heated at 20° C./minute from ambient to about 300° C. with a purge gas of nitrogen.
# [2] = Dynamic vapour sorption (DVS) moisture sorption; type: physicochemical; details: DVS isotherm, 30° C.
# Experimental: The moisture sorption of the hydrated forms of sildenafil hemi-citrate was measured using a Surface Measurement Systems Ltd. Dynamic Vapour Sorption (DVS) Automated Water Sorption Analyser. A sample of the higher hydrate was initially equilibrated at about 45% RH and then analysed from 0 to 90% RH in relative humidity steps of 10% (exposure time of 6 hours per step). A second analysis was carried out from 35 to 65% RH in 5% RH steps to gain more detail in this humidity range (exposure time variable, weight stability of 0.0003%/minute gained for each steps). The temperature was maintained at 30° C. throughout the equilibration and analysis stages.
# Sildenafil hemi-citrate is a hygroscopic material. The isotherm is represented in FIG. 5. At humidities greater than 55% RH the higher hydrate is present and from 30 to 40% RH the lower hydrate is present and at 0% RH the dehydrated form is present. Hysteresis occurs between the sorption and desorption isotherms in the 10 to 30 and 40 to 55% RH regions. This is classically seen for hydrates where kinetics associated with hydration and dehydration result in the events occurring at different humidities. There are slow kinetics associated with the rate of sorption (see FIG. 6) at 50% RH (illustrated by an equilibration time of 21 hours).
smiles,measurement,setting,value
CCCc1nn(C)c2c(=O)[nH]c(-c3cc(S(=O)(=O)N4CCN(C)CC4)ccc3OCC)nc12.CCCc1nn(C)c2c(=O)[nH]c(-c3cc(S(=O)(=O)N4CCN(C)CC4)ccc3OCC)nc12.O=C(O)CC(O)(CC(=O)O)C(=O)O [dehydrated hydrate],second weight loss,[1],about 12%
same,relative humidity at which the form is present,[2],0 % RH
